Measurements: patent US6962933B1, “Method for inhibiting p38 MAP kinase or TNF-α production using a 1,3-thiazole” (Takeda Pharmaceutical Company Limited, priority 1999, dated 2005)
pIC50: −log10 of the molar value.

Experiments:
TNF-α production = experiment: Inhibiting activity of TNF-α production in LPS-stimulated THP-1 cells (ELISA); type: cell-based; conditions: Homo sapiens, LPS 5 μg/mL, 4 hours, TNF-α in supernatant by ELISA, read-out: IC50 (concentration necessary for inhibiting TNF-α production by 50%)
Experimental: Measurement of inhibiting activity of TNF-α production
After THP-1 cells which had been cultured on PRMI 1640 medium (manufactured by Life Technologies, Inc.) containing 1% inactivated bovine fetal serum (manufactured by Life Technologies, Inc., U.S.A.) and 10 mM HEPES (pH 7.5) seeded on a 96-well plate to 1×10^5 cells/well, 1 μL test compound dissolved in DMSO was added. After incubation at 37° C. for 1 hour in a CO2 incubator, LPS (Wako Pure Chemicals) was added to the final concentration 5 μg/mL. After cultured at 37° C. for 4 hours in a CO2 incubator, the supernatant was obtained by centrifugation. The concentration of TNF-α in the supernatant was measured by ELISA (R&D Systems, Quantikine Kit). The concentration (IC50 value) of the test compound necessary for inhibiting TNF-α production by 50% was calculated using PRIMS 2.01 (Graphpad Software).

Structure (SMILES) | pIC50 (TNF-α production) | melting point [°C]
CNc1nc(-c2ccc(Cl)cc2)c(-c2ccncc2)s1 [Reference Example 13-70, N-methyl [4-(4-chlorophenyl)-5-(4-pyridyl)-1,3-thiazol-2-yl]amine] | 6.74 | 224 to 225
CNc1nc(-c2ccc(OC)cc2)c(-c2ccncc2)s1 [Reference Example 13-16, N-methyl [4-(4-methoxyphenyl)-5-(4-pyridyl)-1,3-thiazol-2-yl]amine] | 6.85 | 177 to 178
Cc1cccc(-c2nc(N)sc2-c2ccncc2)c1 [Reference Example 23-60, [4-(3-methylphenyl)-5-(4-pyridyl)-1,3-thiazol-2-yl]amine] | 7.34 | 255 to 258
CC(=O)Nc1nc(-c2cccc(C)c2)c(-c2ccncc2)s1 [Reference Example 23-51, N-[4-(3-methylphenyl)-5-(4-pyridyl)-1,3-thiazol-2-yl]acetamide] |  | 287 to 289
COc1ccc(-c2nc(NC(=O)c3cccnc3)sc2-c2ccncc2)cc1 [Reference Example 23-101, N-[4-(4-methoxyphenyl)-5-(4-pyridyl)-1,3-thiazol-2-yl]nicotinamide] |  | 278 to 281
Cc1ccc(-c2nc(N)sc2-c2ccncc2)cc1C [Reference Example 23-125, [4-(3,4-dimethylphenyl)-5-(4-pyridyl)-1,3-thiazol-2-yl]amine] |  | 248 to 250
